Laboratory results reported in US20190076384A1, “METHODS FOR TREATING UREA CYCLE DISORDERS” (priority 2017, published 2019).
Like-named read-outs stand apart in the source and are kept apart here.

Legend:
[1] = target: CYP2C9 (Homo sapiens, UniProt P11712); conditions: Diclofenac 4′-hydroxylase, 5 mM
[2] = target: CYP2D6 (Homo sapiens, UniProt P10635); conditions: Bufuralol 1′-hydroxylase, 5 mM
[3] = system: CYP3A4/5; type: in vitro ADME, human; conditions: 5 mM
[4] = target: T1, CYP2C8 (Homo sapiens, UniProt P10632); assay: In vitro CYP inhibition study, human liver microsomes, CYP2C8; type: in vitro ADME; conditions: Taxol 6α-hydroxylase, 5 mM
T1 construct: from tissue; host or cells: human liver microsomes
T1 sequence (P10632 1-490): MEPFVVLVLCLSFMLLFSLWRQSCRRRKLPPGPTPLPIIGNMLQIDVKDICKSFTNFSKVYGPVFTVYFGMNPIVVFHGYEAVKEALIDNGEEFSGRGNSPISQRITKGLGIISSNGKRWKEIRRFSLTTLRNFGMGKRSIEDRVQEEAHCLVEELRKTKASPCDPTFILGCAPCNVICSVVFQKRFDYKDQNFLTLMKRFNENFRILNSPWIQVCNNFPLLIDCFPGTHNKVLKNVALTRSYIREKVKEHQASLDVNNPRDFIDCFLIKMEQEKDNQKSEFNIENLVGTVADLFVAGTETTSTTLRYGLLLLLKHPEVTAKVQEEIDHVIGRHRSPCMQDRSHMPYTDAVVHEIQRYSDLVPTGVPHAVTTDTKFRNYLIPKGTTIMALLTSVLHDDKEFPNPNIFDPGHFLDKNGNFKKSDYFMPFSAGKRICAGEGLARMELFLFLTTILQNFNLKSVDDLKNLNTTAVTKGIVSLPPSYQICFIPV

[5] = type: in vivo, human
Protocol: Blood samples were collected on Days 1 and 5 at the following time points: predose, 0.5, 1, 2, 3, 4, 6, 8, 10, 12, 16, and 24 hours postdose. In addition, five plasma PK samples for GPB analysis were collected on Day 4 at the following time points: at 1 minute, 30 minutes, and 1 hour following the first morning dose of RAVICTI; at 30 minutes and 1 hour post second dose of RAVICTI.

[6] = target: Cytochrome P450 2C9 (Homo sapiens, UniProt P11712); assay: clinical; conditions: multiple doses of RAVICTI
Chain of Cytochrome P450 2C9 (P11712 whole entry): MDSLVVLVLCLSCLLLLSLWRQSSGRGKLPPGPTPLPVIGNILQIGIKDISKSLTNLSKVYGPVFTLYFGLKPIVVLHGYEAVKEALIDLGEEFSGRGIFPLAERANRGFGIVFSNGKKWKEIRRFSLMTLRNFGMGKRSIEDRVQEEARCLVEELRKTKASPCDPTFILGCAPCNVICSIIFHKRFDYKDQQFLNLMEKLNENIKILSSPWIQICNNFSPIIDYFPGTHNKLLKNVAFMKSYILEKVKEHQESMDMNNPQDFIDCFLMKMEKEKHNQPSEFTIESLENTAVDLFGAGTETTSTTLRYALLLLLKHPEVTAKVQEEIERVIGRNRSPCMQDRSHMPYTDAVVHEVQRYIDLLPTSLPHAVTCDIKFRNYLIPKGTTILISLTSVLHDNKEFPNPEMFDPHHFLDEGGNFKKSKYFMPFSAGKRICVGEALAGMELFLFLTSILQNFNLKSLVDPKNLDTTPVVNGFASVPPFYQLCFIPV
Protocol: Methodology: This was an open-label, 2-period, monosequence crossover, drug-drug interaction (DDI) study of RAVICTI and celecoxib in healthy male and female subjects.
Test Product, Dose, Duration, and Mode of Administration: In Treatment A (Period 1), subjects received 200 mg celecoxib (1×200 mg capsule) administered orally with approximately 240 mL of water following an overnight fast and approximately 5 minutes prior to the start of a standard breakfast on Day 1.
Pharmacokinetics: Blood samples (4 mL) for the analysis of plasma celecoxib were collected on Days 1 (Period 1) and 4 (Period 2) at the following time points: predose (Hour 0) and 1, 2, 3, 4, 6, 8, 12, 16, 24, 36, 48, 60, and 72 hours postdose. A blood sample (6 mL) for CYP2C9 genotyping was collected at screening to exclude any subjects with a slow metabolizer genotype (i.e., CYP2C9*2/*2, CYP2C9*2/*3, CYP2C9*1/*3, and CYP2C9*3/*3). PK parameters for celecoxib in plasma were computed following Day 1 (Period 1) and Day 4 (Period 2) blood draws and included AUC0-t, AUC0-inf, AUC%extr, Cmax, tmax, t1/2, kel, and CL/F.
Pharmacokinetics: The possible DDI was examined between co-administration of RAVICTI and celecoxib (Treatment B, test) and celecoxib administered alone (Treatment A, reference). An analysis of variance (ANOVA) was performed with treatment as a fixed effect and subject as a random effect. Data for AUC0-t, AUC0-inf, and Cmax, as appropriate, were ln-transformed prior to analysis. The 90% confidence intervals (CIs) of the test group means relative to the reference group means were obtained by taking the antilog of the corresponding 90% CIs for the differences between the means on the log scale, i.e., ratio of geometric least-squares (LS) means.

[7] = Safety and tolerability of RAVICTI coadministered with midazolam; type: in vivo, human
Protocol: Safety: Safety and tolerability were assessed through adverse events (AEs), clinical laboratory results, physical examination findings, vital sign measurements, and electrocardiograms (ECGs).
Safety: Safety data were summarized by treatment and time point. Descriptive statistics (mean, standard deviation [SD], minimum, median, maximum, and sample size [N]) were calculated for quantitative safety data and frequency counts were compiled for classification of qualitative safety data. AE verbatim terms were mapped to preferred terms and system organ classes using the Medical Dictionary for Regulatory Activities (MedDRA®) (Version 16.1). Concomitant medications were coded with the World Health Organization (WHO) Dictionary version 1Mar. 2013.

[8] = target: T2, CYP1A2 (Homo sapiens, UniProt P05177); type: in vitro ADME; conditions: 7-ethoxyresorufin-O-deethylase, 5 mM
T2 construct: from tissue; host or cells: human liver microsomes
T2 sequence (P05177 1-516): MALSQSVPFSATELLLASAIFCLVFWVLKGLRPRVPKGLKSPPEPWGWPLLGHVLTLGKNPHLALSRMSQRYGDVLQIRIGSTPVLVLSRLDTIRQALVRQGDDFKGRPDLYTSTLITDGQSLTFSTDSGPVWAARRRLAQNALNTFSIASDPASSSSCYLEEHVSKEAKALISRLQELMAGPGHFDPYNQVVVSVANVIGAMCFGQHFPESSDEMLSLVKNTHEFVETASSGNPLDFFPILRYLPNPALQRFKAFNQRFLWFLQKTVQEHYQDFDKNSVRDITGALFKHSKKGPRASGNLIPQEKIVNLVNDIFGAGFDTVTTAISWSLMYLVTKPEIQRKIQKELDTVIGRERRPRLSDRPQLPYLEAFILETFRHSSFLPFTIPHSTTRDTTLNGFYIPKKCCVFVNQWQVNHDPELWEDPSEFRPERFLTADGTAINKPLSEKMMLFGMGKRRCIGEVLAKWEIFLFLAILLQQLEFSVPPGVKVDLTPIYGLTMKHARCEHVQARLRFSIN

[9] = RAVICTI coadministered with midazolam, 24 healthy subjects

Chain of CYP2C9 (P11712 whole entry): as the sequence (P11712 whole entry) above
Chain of CYP2D6 (P10635 whole entry): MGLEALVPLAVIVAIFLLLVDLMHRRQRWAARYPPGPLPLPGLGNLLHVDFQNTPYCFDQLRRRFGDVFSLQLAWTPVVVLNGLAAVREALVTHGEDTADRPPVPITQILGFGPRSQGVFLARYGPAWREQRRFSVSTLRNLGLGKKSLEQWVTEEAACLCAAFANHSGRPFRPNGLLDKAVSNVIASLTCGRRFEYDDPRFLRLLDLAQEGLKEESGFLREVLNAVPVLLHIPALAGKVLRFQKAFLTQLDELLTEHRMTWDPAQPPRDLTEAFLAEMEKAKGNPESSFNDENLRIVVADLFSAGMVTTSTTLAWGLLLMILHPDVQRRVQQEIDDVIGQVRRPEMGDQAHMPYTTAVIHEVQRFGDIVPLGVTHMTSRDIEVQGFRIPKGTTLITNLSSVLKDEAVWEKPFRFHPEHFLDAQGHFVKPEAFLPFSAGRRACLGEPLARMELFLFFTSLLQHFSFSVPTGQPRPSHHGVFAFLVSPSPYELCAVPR

## O=C(CCCc1ccccc1)OCC(COC(=O)CCCc1ccccc1)OC(=O)CCCc1ccccc1 [RAVICTI, benzenebutanoic acid, 1′,1″-(1,2,3-propanetriyl) ester]
[1]; pre-incubation time 0 min
  % Inhibition: 35%
[1]; pre-incubation time 30 min
  % Inhibition: 19%
[2]; pre-incubation time 0 min
  % Inhibition: 1%
[2]; pre-incubation time 30 min
  % Inhibition: 4%
[3]; Midazolam 1′-hydroxylase, pre-incubation time 0 min
  % Inhibition: 19%
[3]; Midazolam 1′-hydroxylase, pre-incubation time 30 min
  % Inhibition: 24%
[3]; Testosterone 6β-hydroxylase, pre-incubation time 0 min
  % Inhibition: 15%
[3]; Testosterone 6β-hydroxylase, pre-incubation time 30 min
  % Inhibition: 6%
[4]; pre-incubation time 0 min
  % Inhibition: 11%
[4]; pre-incubation time 30 min
  % Inhibition: 10%
[5]; Day 4 samples, not quantifiable, LLOQ=1.00 ng/mL
  Plasma glycerol phenylbutyrate concentrations: < 1.00 ng/mL
[5]; healthy subjects, RAVICTI oral
  Intact glycerol phenylbutyrate in plasma: not detectable
[6]
  inhibition of CYP2C9 activity in vivo: did not appear to inhibit
[7]; [9]
  deaths, SAEs, discontinuations due to AEs: no deaths, serious adverse events (SAEs), or subject discontinuations due to AEs
  subjects experiencing TEAEs: 6 subjects
  total TEAEs: 10
[7]; oral RAVICTI coadministered with midazolam, healthy adults
  safety and tolerability (conclusion): safe and generally well tolerated
[8]; pre-incubation time 0 min
  % Inhibition: 5%
[8]; pre-incubation time 30 min
  % Inhibition: 8%
